Laboratory results: US12215140B2, “Method of stabilizing protein contained in specimen and solution for stabilizing protein contained in specimen” (EIKEN KAGAKU KABUSHIKI KAISHA, priority 2018, dated 2025)

Biological target: hemoglobin (Homo sapiens, UniProt P68871+P69905)
Test: Stability of hemoglobin in samples preserved at 37° C. in preservation solution containing no haptoglobin, Hb measured by latex agglutination method (Examples 8, 9 and Table 10)
Conditions: arylboronic acid 0.5 mmol/L
Method: Preservation solutions were prepared with the addition of 40 mmol/L HEPES (pH 6.8), 0.1% BSA, 0.1% NaN3, and 0 to 2.5 mmol/L phenylboronic acid. […] Samples obtained by adding hemoglobin-added fecal specimens to the preservation solutions so that the fecal concentration would be 0.5% were preserved at 37° C. for 0, 16, 38, and 62 hours. The fecal specimens were added with hemoglobin having an amount such that the hemoglobin concentration in the samples would be about 300 μg/L. Instead of the fecal specimens to which hemoglobin was added, samples containing no fecal specimens, in which hemoglobin was added to the preservation solutions so that the hemoglobin concentration in the samples would be 300 μg/L, were similarly preserved. The hemoglobin (Hb) concentrations (μg/L) in the preserved samples were measured by the latex agglutination method using the same measurement reagent and measurement device as in Example 1.
The concentration of phenylboronic acid in the preservation solutions of Example 8 was fixed to 0.5 mmol/L, preservation solutions to which sorbitol or sucrose was further added at 10 to 250 mmol/L or trehalose, glucose, fructose, or mannitol was further added at 50 to 100 mmol/L were prepared, and testing was conducted in the same manner as in Example 8. In addition, preservation solutions to which the phenylboronic acid was added but no sugar was added were prepared, preservation solutions to which the phenylboronic acid and sugar were not added were prepared for the comparative examples, and testing was conducted in the same manner.
For comparative examples, preservation solutions to which no arylboronic acid was added were prepared, and testing was conducted in the same manner.

[1] = Feces 1, 0 h at 37° C., no sugar
[2] = Feces 1, 16 h at 37° C., no sugar
[3] = Feces 1, 38 h at 37° C., no sugar
[4] = Feces 1, 62 h at 37° C., no sugar
[5] = Feces 2, 0 h at 37° C., no sugar
[6] = Feces 2, 16 h at 37° C., no sugar
[7] = Feces 2, 38 h at 37° C., no sugar
[8] = Feces 2, 62 h at 37° C., no sugar
[9] = Feces 3, 0 h at 37° C., no sugar
[10] = Feces 3, 16 h at 37° C., no sugar
[11] = Feces 3, 38 h at 37° C., no sugar
[12] = Feces 3, 62 h at 37° C., no sugar
[13] = No feces, 0 h at 37° C., no sugar
[14] = No feces, 16 h at 37° C., no sugar
[15] = No feces, 38 h at 37° C., no sugar
[16] = No feces, 62 h at 37° C., no sugar

Chain of hemoglobin (P69905 2-142): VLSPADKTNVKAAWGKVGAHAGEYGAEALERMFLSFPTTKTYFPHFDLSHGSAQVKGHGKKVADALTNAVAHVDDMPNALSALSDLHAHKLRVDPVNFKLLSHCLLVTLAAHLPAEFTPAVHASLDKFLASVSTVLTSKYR
Chain of hemoglobin (P68871 2-147): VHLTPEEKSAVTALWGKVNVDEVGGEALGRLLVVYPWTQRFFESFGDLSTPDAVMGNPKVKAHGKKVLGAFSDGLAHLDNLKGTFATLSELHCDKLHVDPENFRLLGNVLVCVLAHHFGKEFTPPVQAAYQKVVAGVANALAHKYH

In the case of `O=C(O)c1cccc(B(O)O)c1` [3C-PBA, 3-carboxyphenylboronic acid], the Hb concentration [1] was 296 µg/L, the “Recovery ratio with respect to Hb after 0 days” value (from here on “Recovery ratio”) [1] was 100% and the Hb concentration [2] was 163 µg/L. The “Recovery ratio” value [2] was 55%, the Hb concentration [3] was 68 µg/L and the “Recovery ratio” value [3] was 23%. The Hb concentration [4] was 20 µg/L, the “Recovery ratio” value [4] was 7% and the Hb concentration (Feces 1, 0 h at 37° C.) was 296 µg/L. For the same compound, the “Recovery ratio” value (Feces 1, 0 h at 37° C.) was 100%, the Hb concentration (Feces 1, 16 h at 37° C.) was 163 µg/L and the “Recovery ratio” value (Feces 1, 16 h at 37° C.) was 55%. For the same compound, the Hb concentration (Feces 1, 38 h at 37° C.) was 68 µg/L, the “Recovery ratio” value (Feces 1, 38 h at 37° C.) was 23% and the Hb concentration (Feces 1, 62 h at 37° C.) was 20 µg/L. The “Recovery ratio” value (Feces 1, 62 h at 37° C.) was 7%, the Hb concentration [5] was 288 µg/L and the “Recovery ratio” value [5] was 100%. For the same compound, the Hb concentration [6] was 90 µg/L, the “Recovery ratio” value [6] was 31% and the Hb concentration [7] was 8 µg/L. The “Recovery ratio” value [7] was 3%, the Hb concentration [8] was 0 µg/L and the “Recovery ratio” value [8] was 0%. For the same compound, the Hb concentration (Feces 2, 0 h at 37° C.) was 288 µg/L, the “Recovery ratio” value (Feces 2, 0 h at 37° C.) was 100% and the Hb concentration (Feces 2, 16 h at 37° C.) was 90 µg/L. The “Recovery ratio” value (Feces 2, 16 h at 37° C.) was 31%, the Hb concentration (Feces 2, 38 h at 37° C.) was 8 µg/L and the “Recovery ratio” value (Feces 2, 38 h at 37° C.) was 3%. The Hb concentration (Feces 2, 62 h at 37° C.) was 0 µg/L, the “Recovery ratio” value (Feces 2, 62 h at 37° C.) was 0% and the Hb concentration [9] was 281 µg/L. The “Recovery ratio” value [9] was 100%, the Hb concentration [10] was 95 µg/L and the “Recovery ratio” value [10] was 34%. The Hb concentration [11] was 5 µg/L, the “Recovery ratio” value [11] was 2% and the Hb concentration [12] was 0 µg/L. For the same compound, the “Recovery ratio” value [12] was 0%, the Hb concentration (Feces 3, 0 h at 37° C.) was 281 µg/L and the “Recovery ratio” value (Feces 3, 0 h at 37° C.) was 100%. The Hb concentration (Feces 3, 16 h at 37° C.) was 95 µg/L, the “Recovery ratio” value (Feces 3, 16 h at 37° C.) was 34% and the Hb concentration (Feces 3, 38 h at 37° C.) was 5 µg/L. For the same compound, the “Recovery ratio” value (Feces 3, 38 h at 37° C.) was 2%, the Hb concentration (Feces 3, 62 h at 37° C.) was 0 µg/L and the “Recovery ratio” value (Feces 3, 62 h at 37° C.) was 0%. The Hb concentration [13] was 299 µg/L, the “Recovery ratio” value [13] was 100% and the Hb concentration [14] was 279 µg/L. For the same compound, the “Recovery ratio” value [14] was 94%, the Hb concentration [15] was 264 µg/L and the “Recovery ratio” value [15] was 88%. For the same compound, the Hb concentration [16] was 266 µg/L, the “Recovery ratio” value [16] was 89% and the Hb concentration (No feces, 0 h at 37° C.) was 299 µg/L. For the same compound, the “Recovery ratio” value (No feces, 0 h at 37° C.) was 100%, the Hb concentration (No feces, 16 h at 37° C.) was 279 µg/L and the “Recovery ratio” value (No feces, 16 h at 37° C.) was 94%. The Hb concentration (No feces, 38 h at 37° C.) was 264 µg/L, the “Recovery ratio” value (No feces, 38 h at 37° C.) was 88% and the Hb concentration (No feces, 62 h at 37° C.) was 266 µg/L. The “Recovery ratio” value (No feces, 62 h at 37° C.) was 89%.
